Patent US10669284B2, “Fused thiazolopyrimidine derivatives as MNKS inhibitors” (LIFEARC, priority 2015, dated 2020)
Like-named read-outs stand apart in the source and are kept apart here.

Columns and labels:
FLT1 = FLT1 (Homo sapiens, UniProt P17948); assay: Kinase selectivity screen FLT1; settings: read-out: % inhibition of FLT1
PLK1 = PLK1 (Homo sapiens, UniProt P53350); assay: Kinase selectivity screen PLK1; settings: read-out: % inhibition of PLK1
SRC = SRC (Homo sapiens, UniProt P12931); assay: Kinase selectivity screen SRC; settings: read-out: % inhibition of SRC
Chain of SRC (P12931 whole entry): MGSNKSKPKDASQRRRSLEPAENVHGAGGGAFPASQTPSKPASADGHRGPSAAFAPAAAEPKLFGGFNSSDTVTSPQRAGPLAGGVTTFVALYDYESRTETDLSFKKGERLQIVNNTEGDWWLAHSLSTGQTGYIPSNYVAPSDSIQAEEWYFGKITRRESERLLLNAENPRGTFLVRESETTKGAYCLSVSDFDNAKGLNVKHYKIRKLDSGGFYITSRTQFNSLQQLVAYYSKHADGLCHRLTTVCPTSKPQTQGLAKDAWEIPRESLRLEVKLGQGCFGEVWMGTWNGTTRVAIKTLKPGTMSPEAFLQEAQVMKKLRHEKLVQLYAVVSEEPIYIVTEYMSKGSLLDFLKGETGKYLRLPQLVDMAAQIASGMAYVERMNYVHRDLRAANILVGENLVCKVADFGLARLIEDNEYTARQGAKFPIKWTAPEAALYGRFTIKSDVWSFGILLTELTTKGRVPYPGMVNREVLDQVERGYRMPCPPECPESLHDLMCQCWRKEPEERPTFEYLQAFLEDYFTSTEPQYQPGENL

INSRR = INSRR (Homo sapiens, UniProt P14616); assay: Kinase selectivity screen INSRR; settings: read-out: % inhibition of INSRR
Chain of INSRR (P14616 27-1297, species assumed): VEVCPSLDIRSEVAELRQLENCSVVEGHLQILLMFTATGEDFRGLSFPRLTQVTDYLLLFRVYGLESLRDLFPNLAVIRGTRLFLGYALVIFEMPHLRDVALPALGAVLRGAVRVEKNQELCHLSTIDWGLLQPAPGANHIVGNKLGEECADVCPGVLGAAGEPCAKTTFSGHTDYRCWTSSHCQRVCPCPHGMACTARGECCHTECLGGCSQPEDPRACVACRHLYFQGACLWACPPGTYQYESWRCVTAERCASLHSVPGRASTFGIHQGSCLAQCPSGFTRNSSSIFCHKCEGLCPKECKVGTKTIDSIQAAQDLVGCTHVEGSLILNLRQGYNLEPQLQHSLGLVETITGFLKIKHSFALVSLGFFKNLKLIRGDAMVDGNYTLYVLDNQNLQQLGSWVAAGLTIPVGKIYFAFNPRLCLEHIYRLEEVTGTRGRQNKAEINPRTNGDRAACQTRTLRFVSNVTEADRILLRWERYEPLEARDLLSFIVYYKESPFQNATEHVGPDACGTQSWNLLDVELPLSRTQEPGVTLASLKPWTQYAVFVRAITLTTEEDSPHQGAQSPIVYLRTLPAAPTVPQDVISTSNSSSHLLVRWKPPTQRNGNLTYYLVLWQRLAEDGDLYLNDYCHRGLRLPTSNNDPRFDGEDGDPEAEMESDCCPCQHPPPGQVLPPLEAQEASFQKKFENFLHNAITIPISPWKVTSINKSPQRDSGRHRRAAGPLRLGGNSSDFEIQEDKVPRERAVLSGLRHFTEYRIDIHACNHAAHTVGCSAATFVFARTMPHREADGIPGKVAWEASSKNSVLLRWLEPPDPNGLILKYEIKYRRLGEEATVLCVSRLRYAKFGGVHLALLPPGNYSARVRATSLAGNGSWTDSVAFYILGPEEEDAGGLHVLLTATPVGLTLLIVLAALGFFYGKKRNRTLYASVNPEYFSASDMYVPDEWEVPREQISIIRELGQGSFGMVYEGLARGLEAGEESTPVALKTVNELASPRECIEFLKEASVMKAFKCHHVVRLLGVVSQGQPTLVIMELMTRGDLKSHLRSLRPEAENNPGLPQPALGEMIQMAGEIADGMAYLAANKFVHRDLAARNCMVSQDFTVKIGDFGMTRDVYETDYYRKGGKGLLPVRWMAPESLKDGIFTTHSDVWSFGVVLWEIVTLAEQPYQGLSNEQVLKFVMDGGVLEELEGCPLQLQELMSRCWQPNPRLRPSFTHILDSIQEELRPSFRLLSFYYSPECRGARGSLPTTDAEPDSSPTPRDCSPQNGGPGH

FGFR1 = FGFR1 (Homo sapiens, UniProt P11362); assay: Kinase selectivity screen FGFR1; settings: read-out: % inhibition of FGFR1
EGFR = EGFR (Homo sapiens, UniProt P00533); assay: Kinase selectivity screen EGFR; settings: read-out: % inhibition of EGFR
Chain of EGFR (P00533 25-1210): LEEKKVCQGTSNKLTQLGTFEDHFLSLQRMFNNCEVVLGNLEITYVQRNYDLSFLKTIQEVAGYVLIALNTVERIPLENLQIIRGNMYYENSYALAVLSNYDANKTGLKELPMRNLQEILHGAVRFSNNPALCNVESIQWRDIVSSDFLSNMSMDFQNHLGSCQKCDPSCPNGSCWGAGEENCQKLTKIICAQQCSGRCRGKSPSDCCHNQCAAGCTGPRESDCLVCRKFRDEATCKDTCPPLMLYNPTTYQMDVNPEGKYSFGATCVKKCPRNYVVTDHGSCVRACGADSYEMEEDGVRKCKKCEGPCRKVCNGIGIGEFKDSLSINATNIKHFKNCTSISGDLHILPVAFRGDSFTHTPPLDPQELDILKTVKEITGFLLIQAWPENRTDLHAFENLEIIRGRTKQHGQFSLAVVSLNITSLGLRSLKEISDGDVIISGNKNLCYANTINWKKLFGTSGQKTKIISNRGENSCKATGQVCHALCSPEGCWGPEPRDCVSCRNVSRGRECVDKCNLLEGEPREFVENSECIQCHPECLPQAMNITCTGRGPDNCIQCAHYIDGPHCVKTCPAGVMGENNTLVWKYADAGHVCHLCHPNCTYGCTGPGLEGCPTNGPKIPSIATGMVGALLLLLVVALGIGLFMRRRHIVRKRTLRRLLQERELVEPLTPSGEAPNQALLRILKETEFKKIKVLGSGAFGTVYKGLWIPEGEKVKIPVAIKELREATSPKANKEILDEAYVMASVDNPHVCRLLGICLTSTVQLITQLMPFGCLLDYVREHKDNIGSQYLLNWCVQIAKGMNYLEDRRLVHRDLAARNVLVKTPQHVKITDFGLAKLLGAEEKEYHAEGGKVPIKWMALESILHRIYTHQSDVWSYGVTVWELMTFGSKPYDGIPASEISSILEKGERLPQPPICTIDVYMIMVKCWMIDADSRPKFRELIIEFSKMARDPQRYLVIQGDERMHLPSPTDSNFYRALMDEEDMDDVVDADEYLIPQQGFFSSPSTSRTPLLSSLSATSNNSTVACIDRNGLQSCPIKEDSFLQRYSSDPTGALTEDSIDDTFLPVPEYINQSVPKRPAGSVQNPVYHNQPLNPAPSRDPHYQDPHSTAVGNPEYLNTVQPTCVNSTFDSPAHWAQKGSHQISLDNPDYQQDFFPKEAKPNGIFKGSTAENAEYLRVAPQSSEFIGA

Full-length human MNK1 = target: T1, Full-length human MNK1 (Homo sapiens, UniProt Q9BUB5, T385D); assay: MNK1 biochemical IC50 assay (Caliper Mobility Shift Assay)
T1 construct: GST (N); purchased Carna Biosciences 02-145; host or cells: baculovirus expression system

ULK2 = target: T2, ULK2 (Homo sapiens, UniProt Q8IYT8); assay: Kinase selectivity screen ULK2; settings: read-out: % inhibition of ULK2
T2 sequence (Q8IYT8 1-1036): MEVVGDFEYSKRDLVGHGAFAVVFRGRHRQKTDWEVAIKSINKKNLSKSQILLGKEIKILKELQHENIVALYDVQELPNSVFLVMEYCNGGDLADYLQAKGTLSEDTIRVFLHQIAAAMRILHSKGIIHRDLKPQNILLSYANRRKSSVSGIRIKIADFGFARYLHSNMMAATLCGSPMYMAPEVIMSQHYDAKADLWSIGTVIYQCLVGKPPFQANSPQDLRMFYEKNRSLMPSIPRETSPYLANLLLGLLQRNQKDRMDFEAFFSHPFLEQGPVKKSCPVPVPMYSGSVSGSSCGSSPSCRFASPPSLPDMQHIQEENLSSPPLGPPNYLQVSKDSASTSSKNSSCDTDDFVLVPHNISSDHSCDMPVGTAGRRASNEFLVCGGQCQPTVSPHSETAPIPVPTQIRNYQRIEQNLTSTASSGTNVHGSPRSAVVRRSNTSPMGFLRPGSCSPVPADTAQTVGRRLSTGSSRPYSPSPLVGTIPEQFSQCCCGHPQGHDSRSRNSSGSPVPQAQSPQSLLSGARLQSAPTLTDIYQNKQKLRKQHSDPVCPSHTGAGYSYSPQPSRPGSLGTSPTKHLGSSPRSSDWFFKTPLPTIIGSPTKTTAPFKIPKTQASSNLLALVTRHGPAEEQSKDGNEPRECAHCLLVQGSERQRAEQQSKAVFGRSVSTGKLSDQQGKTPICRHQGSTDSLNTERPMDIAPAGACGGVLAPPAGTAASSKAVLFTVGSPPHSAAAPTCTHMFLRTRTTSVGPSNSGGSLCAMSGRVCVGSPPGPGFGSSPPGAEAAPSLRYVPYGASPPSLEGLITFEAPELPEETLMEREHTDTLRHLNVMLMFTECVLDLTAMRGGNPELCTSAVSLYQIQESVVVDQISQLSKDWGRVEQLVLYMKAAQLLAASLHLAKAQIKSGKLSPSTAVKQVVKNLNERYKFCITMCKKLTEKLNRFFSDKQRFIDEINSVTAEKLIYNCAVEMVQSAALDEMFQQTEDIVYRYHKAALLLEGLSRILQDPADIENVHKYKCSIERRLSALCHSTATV

PRKCA = PRKCA (Homo sapiens, UniProt P17252); assay: Kinase selectivity screen PRKCA; settings: read-out: % inhibition of PRKCA
CDK6/CCND3 = CDK6/CCND3 (Homo sapiens, UniProt Q00534); assay: Kinase selectivity screen CDK6/CCND3; settings: read-out: % inhibition of CDK6/CCND3
RPS6KB1 = RPS6KB1 (Homo sapiens, UniProt P23443); assay: Kinase selectivity screen RPS6KB1; settings: read-out: % inhibition of RPS6KB1
Chain of RPS6KB1 (P23443 whole entry, species assumed): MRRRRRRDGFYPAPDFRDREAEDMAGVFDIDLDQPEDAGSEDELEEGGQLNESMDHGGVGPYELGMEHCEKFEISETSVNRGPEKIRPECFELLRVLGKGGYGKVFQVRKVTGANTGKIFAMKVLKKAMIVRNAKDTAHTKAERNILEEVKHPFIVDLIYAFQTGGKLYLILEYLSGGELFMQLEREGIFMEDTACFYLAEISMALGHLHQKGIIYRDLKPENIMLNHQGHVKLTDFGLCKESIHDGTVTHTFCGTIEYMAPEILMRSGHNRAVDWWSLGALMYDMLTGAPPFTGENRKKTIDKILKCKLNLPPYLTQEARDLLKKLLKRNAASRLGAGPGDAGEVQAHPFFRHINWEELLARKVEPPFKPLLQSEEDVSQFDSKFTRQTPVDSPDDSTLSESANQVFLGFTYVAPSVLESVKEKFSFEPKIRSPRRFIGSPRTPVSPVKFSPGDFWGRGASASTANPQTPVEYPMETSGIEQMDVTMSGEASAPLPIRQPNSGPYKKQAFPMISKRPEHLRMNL

[1] = read-out: P(IC50) MNK1 (converted)

Chain of FLT1 (P17948 27-1338, species assumed): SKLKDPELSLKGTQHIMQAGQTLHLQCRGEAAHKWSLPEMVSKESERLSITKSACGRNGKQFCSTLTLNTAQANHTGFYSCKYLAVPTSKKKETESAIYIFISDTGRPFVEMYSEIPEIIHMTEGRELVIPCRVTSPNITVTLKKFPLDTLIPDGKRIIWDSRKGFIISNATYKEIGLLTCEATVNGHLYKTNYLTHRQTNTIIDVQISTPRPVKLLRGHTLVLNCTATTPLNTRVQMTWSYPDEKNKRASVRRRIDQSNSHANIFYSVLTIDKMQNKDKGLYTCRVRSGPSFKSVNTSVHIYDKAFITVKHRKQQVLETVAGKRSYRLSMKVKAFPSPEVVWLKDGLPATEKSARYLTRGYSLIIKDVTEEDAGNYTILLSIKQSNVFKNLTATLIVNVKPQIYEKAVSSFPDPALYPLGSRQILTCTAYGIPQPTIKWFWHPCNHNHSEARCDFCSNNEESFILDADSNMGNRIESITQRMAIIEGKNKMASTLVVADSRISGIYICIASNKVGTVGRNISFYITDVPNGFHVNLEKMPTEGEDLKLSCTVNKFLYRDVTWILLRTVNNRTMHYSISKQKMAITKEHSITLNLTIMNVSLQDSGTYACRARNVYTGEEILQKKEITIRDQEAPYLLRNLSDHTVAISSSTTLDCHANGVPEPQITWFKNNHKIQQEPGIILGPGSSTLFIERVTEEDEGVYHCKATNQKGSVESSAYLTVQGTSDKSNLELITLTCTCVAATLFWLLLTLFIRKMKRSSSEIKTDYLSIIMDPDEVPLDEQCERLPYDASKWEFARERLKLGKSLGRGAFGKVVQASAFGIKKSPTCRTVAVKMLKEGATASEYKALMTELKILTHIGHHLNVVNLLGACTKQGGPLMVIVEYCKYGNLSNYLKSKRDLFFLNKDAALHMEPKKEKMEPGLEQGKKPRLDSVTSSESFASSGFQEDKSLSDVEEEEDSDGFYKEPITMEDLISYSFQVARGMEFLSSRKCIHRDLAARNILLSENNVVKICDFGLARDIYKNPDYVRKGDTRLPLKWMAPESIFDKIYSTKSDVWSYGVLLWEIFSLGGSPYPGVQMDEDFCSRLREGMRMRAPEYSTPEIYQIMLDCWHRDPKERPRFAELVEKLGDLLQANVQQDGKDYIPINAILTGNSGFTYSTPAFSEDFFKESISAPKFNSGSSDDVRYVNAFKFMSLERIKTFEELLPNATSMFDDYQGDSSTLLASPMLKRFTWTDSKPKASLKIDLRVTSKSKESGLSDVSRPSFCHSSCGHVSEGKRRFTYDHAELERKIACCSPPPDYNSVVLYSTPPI

CC(C)Oc1cc(F)ccc1Nc1ncnc2sc(C(=O)NCC3CCNCC3)nc12 [Example 10, 7-(4-fluoro-2-isopropoxy-anilino)-N-(4-piperidylmethyl)thiazolo[5,4-d]pyrimidine-2-carboxamide]
inhibition at 1 µM (FLT1): 12%
inhibition at 1 µM (PLK1): 0%
inhibition at 1 µM (SRC): 5%
inhibition at 1 µM (INSRR): 10%
inhibition at 1 µM (FGFR1): 1%
inhibition at 1 µM (EGFR): 0%
IC50 (Full-length human MNK1): 50.1 nM
inhibition at 1 µM (ULK2): 0%
inhibition at 1 µM (PRKCA): 8%
inhibition at 1 µM (CDK6/CCND3): 3%
inhibition at 1 µM (RPS6KB1): 0%

CN(C)CCCNC(=O)c1nc2c(N3CCc4cc(F)ccc43)ncnc2s1 [Example 64, N-[3-(dimethylamino)propyl]-7-(5-fluoroindolin-1-yl)thiazolo[5,4-d]pyrimidine-2-carboxamide]
inhibition at 1 µM (FLT1): 27%
inhibition at 1 µM (PLK1): 0%
inhibition at 1 µM (SRC): 0%
inhibition at 1 µM (INSRR): 0%
inhibition at 1 µM (FGFR1): 2%
inhibition at 1 µM (EGFR): 5%
IC50 (Full-length human MNK1; [1]): 2.51 nM
inhibition at 1 µM (ULK2): 81%
inhibition at 1 µM (PRKCA): 0%
inhibition at 1 µM (CDK6/CCND3): 9%
inhibition at 1 µM (RPS6KB1): 0%

O=C(NCC1CCNCC1)c1nc2c(N3CCc4cc(F)ccc43)ncnc2s1 [Example 58, 7-(5-fluoroindolin-1-yl)-N-(4-piperidylmethyl)thiazolo[5,4-d]pyrimidine-2-carboxamide]
inhibition at 1 µM (FLT1): 6%
inhibition at 1 µM (PLK1): 1%
inhibition at 1 µM (SRC): 0%
inhibition at 1 µM (INSRR): 13%
inhibition at 1 µM (FGFR1): 0%
inhibition at 1 µM (EGFR): 0%
IC50 (Full-length human MNK1; [1]): 5.01 nM
inhibition at 1 µM (ULK2): 21%
inhibition at 1 µM (PRKCA): 0%
inhibition at 1 µM (CDK6/CCND3): 0%
inhibition at 1 µM (RPS6KB1): 0%
